From PubChem BioAssay (NCI)
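Briefly, cells in 96-well plates were exposed to five compound concentrations for 48 h, and endpoints were estimated by linear interpolation. GI50: concentration for 50% inhibition of growth. TGI: concentration producing complete growth inhibition.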

Experiments:
Experiment in all cases: NCI-60 cell line screen, 48 h
OVCAR-3 ovarian = system: OVCAR-3 ovarian
HOP-92 NSCLC = system: HOP-92 NSCLC
TK-10 renal = system: TK-10 renal
SK-MEL-28 melanoma = system: SK-MEL-28 melanoma
U251 CNS = system: U251 CNS
SF-539 CNS = system: SF-539 CNS
HS 578T breast = system: HS 578T breast
SNB-75 CNS = system: SNB-75 CNS
HL-60(TB) leukemia = system: HL-60(TB) leukemia
SF-268 CNS = system: SF-268 CNS
MCF7 breast = system: MCF7 breast
SK-OV-3 ovarian = system: SK-OV-3 ovarian
HT29 colon = system: HT29 colon
MALME-3M melanoma = system: MALME-3M melanoma
MDA-MB-435 = system: MDA-MB-435
HCC-2998 colon = system: HCC-2998 colon
KM12 colon = system: KM12 colon
MDA-MB-231 breast = system: MDA-MB-231 breast
MOLT-4 leukemia = system: MOLT-4 leukemia
NCI-H460 lung = system: NCI-H460 lung
SK-MEL-2 melanoma = system: SK-MEL-2 melanoma
A498 renal = system: A498 renal
SN12C renal = system: SN12C renal
COLO 205 colon = system: COLO 205 colon
LOX IMVI melanoma = system: LOX IMVI melanoma
PC-3 prostate = system: PC-3 prostate
HCT-15 colon = system: HCT-15 colon
HOP-62 NSCLC = system: HOP-62 NSCLC
IGROV1 ovarian = system: IGROV1 ovarian
HCT-116 colon = system: HCT-116 colon
RPMI-8226 leukemia = system: RPMI-8226 leukemia
SW-620 colon = system: SW-620 colon
NCI-H522 lung = system: NCI-H522 lung
UACC-62 melanoma = system: UACC-62 melanoma
M14 melanoma = system: M14 melanoma
OVCAR-4 ovarian = system: OVCAR-4 ovarian
RXF 393 renal = system: RXF 393 renal
UACC-257 melanoma = system: UACC-257 melanoma
A549 NSCLC = system: A549 NSCLC
T-47D breast = system: T-47D breast
CAKI-1 renal = system: CAKI-1 renal
SNB-19 CNS = system: SNB-19 CNS
OVCAR-8 ovarian = system: OVCAR-8 ovarian
UO-31 renal = system: UO-31 renal
ACHN renal = system: ACHN renal
786-0 renal = system: 786-0 renal
NCI-H23 lung = system: NCI-H23 lung
SK-MEL-5 melanoma = system: SK-MEL-5 melanoma
NCI-H226 lung = system: NCI-H226 lung
K-562 leukemia = system: K-562 leukemia
DU-145 prostate = system: DU-145 prostate
NCI/ADR-RES ovarian = system: NCI/ADR-RES ovarian
OVCAR-5 ovarian = system: OVCAR-5 ovarian
CCRF-CEM leukemia = system: CCRF-CEM leukemia
BT-549 breast = system: BT-549 breast
SF-295 CNS = system: SF-295 CNS

O=C1/C(=C\c2ccc(Cl)cc2)CN(C(=O)c2ccccc2)C/C1=C\c1ccc(Cl)cc1
GI50 (OVCAR-3 ovarian): 2.43 µM | TGI (OVCAR-3 ovarian): 5.49 µM | GI50 (HOP-92 NSCLC): 7.18 µM | TGI (HOP-92 NSCLC): 55.9 µM | GI50 (TK-10 renal): 3.59 µM | TGI (TK-10 renal): 14.1 µM | GI50 (SK-MEL-28 melanoma): 2.94 µM | TGI (SK-MEL-28 melanoma): 9.68 µM | GI50 (U251 CNS): 1.57 µM | TGI (U251 CNS): 3.26 µM | GI50 (SF-539 CNS): 2.15 µM | TGI (SF-539 CNS): 5.13 µM | GI50 (HS 578T breast): 2.92 µM | TGI (HS 578T breast): 9.17 µM | GI50 (SNB-75 CNS): 3.77 µM | TGI (SNB-75 CNS): > 71.8 µM | GI50 (HL-60(TB) leukemia): 6.58 µM | TGI (HL-60(TB) leukemia): 66.2 µM | GI50 (SF-268 CNS): 3.74 µM | TGI (SF-268 CNS): 17.5 µM | GI50 (MCF7 breast): 0.437 µM | TGI (MCF7 breast): 3.09 µM | GI50 (SK-OV-3 ovarian): 4.64 µM | TGI (SK-OV-3 ovarian): 32.3 µM | GI50 (HT29 colon): 1.66 µM | TGI (HT29 colon): 5 µM | GI50 (MALME-3M melanoma): 9.17 µM | TGI (MALME-3M melanoma): 51.7 µM | GI50 (MDA-MB-435): 2.58 µM | TGI (MDA-MB-435): 8.04 µM | GI50 (HCC-2998 colon): 2.03 µM | TGI (HCC-2998 colon): 3.97 µM | GI50 (KM12 colon): 1.2 µM | TGI (KM12 colon): 3.18 µM | GI50 (MDA-MB-231 breast): 2.47 µM | TGI (MDA-MB-231 breast): 6.9 µM | GI50 (MOLT-4 leukemia): 4.25 µM | TGI (MOLT-4 leukemia): > 100 µM | GI50 (NCI-H460 lung): 5.97 µM | TGI (NCI-H460 lung): > 84.7 µM | GI50 (SK-MEL-2 melanoma): 16.8 µM | TGI (SK-MEL-2 melanoma): 71.2 µM | GI50 (A498 renal): 23 µM | TGI (A498 renal): > 74 µM | GI50 (SN12C renal): 2.16 µM | TGI (SN12C renal): 5.4 µM | GI50 (COLO 205 colon): 3.45 µM | TGI (COLO 205 colon): 10.5 µM | GI50 (LOX IMVI melanoma): 0.771 µM | TGI (LOX IMVI melanoma): 2.26 µM | GI50 (PC-3 prostate): 2.57 µM | TGI (PC-3 prostate): 10.1 µM | GI50 (HCT-15 colon): 1.86 µM | TGI (HCT-15 colon): 5.03 µM | GI50 (HOP-62 NSCLC): 2.45 µM | TGI (HOP-62 NSCLC): 6.41 µM | GI50 (IGROV1 ovarian): 3.22 µM | TGI (IGROV1 ovarian): 9.78 µM | GI50 (HCT-116 colon): 0.337 µM | TGI (HCT-116 colon): 1.04 µM | GI50 (RPMI-8226 leukemia): 0.274 µM | TGI (RPMI-8226 leukemia): 1.36 µM | GI50 (SW-620 colon): 1.75 µM | TGI (SW-620 colon): 5.01 µM | GI50 (NCI-H522 lung): 3.22 µM | TGI (NCI-H522 lung): 10.8 µM | GI50 (UACC-62 melanoma): 1.86 µM | TGI (UACC-62 melanoma): 4.55 µM | GI50 (M14 melanoma): 2.63 µM | TGI (M14 melanoma): 7.39 µM | GI50 (OVCAR-4 ovarian): 2.54 µM | TGI (OVCAR-4 ovarian): 19.4 µM | GI50 (RXF 393 renal): 1.68 µM | TGI (RXF 393 renal): 3.26 µM | GI50 (UACC-257 melanoma): 5.51 µM | TGI (UACC-257 melanoma): 33.9 µM | GI50 (A549 NSCLC): 3.15 µM | TGI (A549 NSCLC): > 45.6 µM | GI50 (T-47D breast): 4.33 µM | TGI (T-47D breast): > 100 µM | GI50 (CAKI-1 renal): 8.45 µM | TGI (CAKI-1 renal): > 100 µM | GI50 (SNB-19 CNS): 3.27 µM | TGI (SNB-19 CNS): 19.3 µM | GI50 (OVCAR-8 ovarian): 3.41 µM | TGI (OVCAR-8 ovarian): > 100 µM | GI50 (UO-31 renal): 1.83 µM | TGI (UO-31 renal): 5.33 µM | GI50 (ACHN renal): 2.73 µM | TGI (ACHN renal): 8.17 µM | GI50 (786-0 renal): 2.19 µM | TGI (786-0 renal): 4.6 µM | GI50 (NCI-H23 lung): 3.13 µM | TGI (NCI-H23 lung): 12.5 µM | GI50 (SK-MEL-5 melanoma): 2.39 µM | TGI (SK-MEL-5 melanoma): 6.78 µM | TGI (NCI-H226 lung): > 20.1 µM | GI50 (K-562 leukemia): 1.98 µM | TGI (K-562 leukemia): > 100 µM | GI50 (DU-145 prostate): 4.12 µM | TGI (DU-145 prostate): > 56.4 µM | GI50 (NCI/ADR-RES ovarian): 3.59 µM | TGI (NCI/ADR-RES ovarian): 19.7 µM | GI50 (OVCAR-5 ovarian): 5.24 µM | TGI (OVCAR-5 ovarian): 43.2 µM | GI50 (CCRF-CEM leukemia): 2.5 µM | TGI (CCRF-CEM leukemia): > 70.2 µM | GI50 (BT-549 breast): 2.89 µM | TGI (BT-549 breast): 7.17 µM | GI50 (SF-295 CNS): 3.38 µM | TGI (SF-295 CNS): 57.7 µM
